Experimental data reported in publication PMC7933434, “Entropy-driven binding of gut bacterial β-glucuronidase inhibitors ameliorates irinotecan-induced toxicity” (Communications Biology, 2021).
Several values for one entry are separate records, joined by “and”; a condition that tells them apart may be missing. Equal values may be shown once.

Experiments:
[1] = set-up: method as in PMID 18537837; details: endocyclic amine; cited from earlier work
HsGUS (human GUS) = biological target: T1, HsGUS (human GUS) (Homo sapiens, UniProt P08236); test: GUS inhibition assay, hydrolysis of 4-methylumbelliferyl-β-glucuronide, HsGUS; assay type: biochemical; set-up: GUS activity (hydrolysis rate of MUG): unit not given here
T1 construct: HsGUS was prepared as described[37]; made in house
T1 sequence (P08236 23-651): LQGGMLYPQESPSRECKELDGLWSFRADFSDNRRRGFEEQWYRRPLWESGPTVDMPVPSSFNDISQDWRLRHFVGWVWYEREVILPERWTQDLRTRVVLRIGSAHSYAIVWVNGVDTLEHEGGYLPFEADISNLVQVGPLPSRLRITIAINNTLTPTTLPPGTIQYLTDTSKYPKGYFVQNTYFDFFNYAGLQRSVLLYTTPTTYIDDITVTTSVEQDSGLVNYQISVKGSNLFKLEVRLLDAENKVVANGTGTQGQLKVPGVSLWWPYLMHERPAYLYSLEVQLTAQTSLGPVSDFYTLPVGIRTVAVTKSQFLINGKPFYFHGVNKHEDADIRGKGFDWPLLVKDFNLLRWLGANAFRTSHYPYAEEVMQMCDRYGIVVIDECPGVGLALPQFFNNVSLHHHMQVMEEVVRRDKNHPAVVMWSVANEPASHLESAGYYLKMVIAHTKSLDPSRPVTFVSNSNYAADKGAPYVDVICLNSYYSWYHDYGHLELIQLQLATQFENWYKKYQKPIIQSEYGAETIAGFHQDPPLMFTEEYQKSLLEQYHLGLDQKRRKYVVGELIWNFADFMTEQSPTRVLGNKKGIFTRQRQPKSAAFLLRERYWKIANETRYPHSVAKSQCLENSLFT

CCC[C@@H]1NC[C@@H](O)[C@H](O)[C@H]1C(=O)O [Inhibitor 2, C6-propyl UIFG]
pKa [1]: 9.4
Ki (HsGUS (human GUS); HsGUS, 50 mM sodium acetate pH 4.5, 37 °C): 36.1 ± 7.5 µM
GUS activity (hydrolysis rate of MUG) (HsGUS (human GUS); [Inhibitor 2] =2 μM, [MUG] 0.1 mM): 948.853 and 951.385
GUS activity (hydrolysis rate of MUG) (HsGUS (human GUS); [Inhibitor 2] =2 μM, [MUG] 0.2 mM): 1632.03 and 1685.82
GUS activity (hydrolysis rate of MUG) (HsGUS (human GUS); [Inhibitor 2] =2 μM, [MUG] 0.4 mM): 2642.25 and 2523.4
GUS activity (hydrolysis rate of MUG) (HsGUS (human GUS); [Inhibitor 2] =2 μM, [MUG] 0.6 mM): 3352.21 and 3311.67
GUS activity (hydrolysis rate of MUG) (HsGUS (human GUS); [Inhibitor 2] =2 μM, [MUG] 0.8 mM): 3926.69 and 3841.33
GUS activity (hydrolysis rate of MUG) (HsGUS (human GUS); [Inhibitor 2] =2 μM, [MUG] 1.2 mM): 4682.68 and 4814.95
GUS activity (hydrolysis rate of MUG) (HsGUS (human GUS); [Inhibitor 2] =2 μM, [MUG] 1.6 mM): 5075.17 and 5261.75
GUS activity (hydrolysis rate of MUG) (HsGUS (human GUS); [Inhibitor 2] =2 μM, [MUG] 2 mM): 5616.94 and 5799.63
GUS activity (hydrolysis rate of MUG) (HsGUS (human GUS); [Inhibitor 2] =5 μM, [MUG] 0.1 mM): 870.401 and 901.046
GUS activity (hydrolysis rate of MUG) (HsGUS (human GUS); [Inhibitor 2] =5 μM, [MUG] 0.2 mM): 1774.12 and 1609.49
GUS activity (hydrolysis rate of MUG) (HsGUS (human GUS); [Inhibitor 2] =5 μM, [MUG] 0.4 mM): 2566.62 and 2497.87
GUS activity (hydrolysis rate of MUG) (HsGUS (human GUS); [Inhibitor 2] =5 μM, [MUG] 0.6 mM): 3244.91 and 3390.27
GUS activity (hydrolysis rate of MUG) (HsGUS (human GUS); [Inhibitor 2] =5 μM, [MUG] 0.8 mM): 3688.45 and 3865.44
GUS activity (hydrolysis rate of MUG) (HsGUS (human GUS); [Inhibitor 2] =5 μM, [MUG] 1.2 mM): 4481.74 and 4357.11
GUS activity (hydrolysis rate of MUG) (HsGUS (human GUS); [Inhibitor 2] =5 μM, [MUG] 1.6 mM): 5234.04 and 5031.9
GUS activity (hydrolysis rate of MUG) (HsGUS (human GUS); [Inhibitor 2] =5 μM, [MUG] 2 mM): 5683.23 and 5771.06
GUS activity (hydrolysis rate of MUG) (HsGUS (human GUS); [Inhibitor 2] =10 μM, [MUG] 0.1 mM): 788.919 and 835.551
GUS activity (hydrolysis rate of MUG) (HsGUS (human GUS); [Inhibitor 2] =10 μM, [MUG] 0.2 mM): 1388.11 and 1357.62
GUS activity (hydrolysis rate of MUG) (HsGUS (human GUS); [Inhibitor 2] =10 μM, [MUG] 0.4 mM): 2139.7 and 2292.26
GUS activity (hydrolysis rate of MUG) (HsGUS (human GUS); [Inhibitor 2] =10 μM, [MUG] 0.6 mM): 2815.06 and 3009.55
GUS activity (hydrolysis rate of MUG) (HsGUS (human GUS); [Inhibitor 2] =10 μM, [MUG] 0.8 mM): 3419.24 and 3416.94
GUS activity (hydrolysis rate of MUG) (HsGUS (human GUS); [Inhibitor 2] =10 μM, [MUG] 1.2 mM): 4195.01 and 4091.63
GUS activity (hydrolysis rate of MUG) (HsGUS (human GUS); [Inhibitor 2] =10 μM, [MUG] 1.6 mM): 5141.39 and 4873.96
GUS activity (hydrolysis rate of MUG) (HsGUS (human GUS); [Inhibitor 2] =10 μM, [MUG] 2 mM): 5569.48 and 4956.18
GUS activity (hydrolysis rate of MUG) (HsGUS (human GUS); [Inhibitor 2] =20 μM, [MUG] 0.1 mM): 633.046 and 650.421
GUS activity (hydrolysis rate of MUG) (HsGUS (human GUS); [Inhibitor 2] =20 μM, [MUG] 0.2 mM): 1058.97 and 1051.89
GUS activity (hydrolysis rate of MUG) (HsGUS (human GUS); [Inhibitor 2] =20 μM, [MUG] 0.4 mM): 1746.1 and 1806.97
GUS activity (hydrolysis rate of MUG) (HsGUS (human GUS); [Inhibitor 2] =20 μM, [MUG] 0.6 mM): 2323.32 and 2357.04
GUS activity (hydrolysis rate of MUG) (HsGUS (human GUS); [Inhibitor 2] =20 μM, [MUG] 0.8 mM): 2744.58 and 2819.54
GUS activity (hydrolysis rate of MUG) (HsGUS (human GUS); [Inhibitor 2] =20 μM, [MUG] 1.2 mM): 3443.09 and 3077.07
GUS activity (hydrolysis rate of MUG) (HsGUS (human GUS); [Inhibitor 2] =20 μM, [MUG] 1.6 mM): 3957.48 and 3836.46
GUS activity (hydrolysis rate of MUG) (HsGUS (human GUS); [Inhibitor 2] =20 μM, [MUG] 2 mM): 4613.38 and 4482.85
GUS activity (hydrolysis rate of MUG) (HsGUS (human GUS); [Inhibitor 2] =40 μM, [MUG] 0.1 mM): 425.121 and 430.469
GUS activity (hydrolysis rate of MUG) (HsGUS (human GUS); [Inhibitor 2] =40 μM, [MUG] 0.2 mM): 709.381 and 742.235
GUS activity (hydrolysis rate of MUG) (HsGUS (human GUS); [Inhibitor 2] =40 μM, [MUG] 0.4 mM): 1260.88 and 1281.33
GUS activity (hydrolysis rate of MUG) (HsGUS (human GUS); [Inhibitor 2] =40 μM, [MUG] 0.6 mM): 1728.03 and 1805.44
GUS activity (hydrolysis rate of MUG) (HsGUS (human GUS); [Inhibitor 2] =40 μM, [MUG] 0.8 mM): 2092.2 and 2090.09
GUS activity (hydrolysis rate of MUG) (HsGUS (human GUS); [Inhibitor 2] =40 μM, [MUG] 1.2 mM): 2609.86 and 2615.59
GUS activity (hydrolysis rate of MUG) (HsGUS (human GUS); [Inhibitor 2] =40 μM, [MUG] 1.6 mM): 3152.02 and 3056.96
GUS activity (hydrolysis rate of MUG) (HsGUS (human GUS); [Inhibitor 2] =40 μM, [MUG] 2 mM): 3549.78 and 3510.91
GUS activity (hydrolysis rate of MUG) (HsGUS (human GUS); [Inhibitor 2] =75 μM, [MUG] 0.1 mM): 269.697 and 248.688
GUS activity (hydrolysis rate of MUG) (HsGUS (human GUS); [Inhibitor 2] =75 μM, [MUG] 0.2 mM): 469.532 and 449.551
GUS activity (hydrolysis rate of MUG) (HsGUS (human GUS); [Inhibitor 2] =75 μM, [MUG] 0.4 mM): 868.241 and 807.629
GUS activity (hydrolysis rate of MUG) (HsGUS (human GUS); [Inhibitor 2] =75 μM, [MUG] 0.6 mM): 1207.03 and 1153.12
GUS activity (hydrolysis rate of MUG) (HsGUS (human GUS); [Inhibitor 2] =75 μM, [MUG] 0.8 mM): 1515.37 and 1395.3
GUS activity (hydrolysis rate of MUG) (HsGUS (human GUS); [Inhibitor 2] =75 μM, [MUG] 1.2 mM): 1853.64 and 1948.04
GUS activity (hydrolysis rate of MUG) (HsGUS (human GUS); [Inhibitor 2] =75 μM, [MUG] 1.6 mM): 2229.7 and 2415.81
GUS activity (hydrolysis rate of MUG) (HsGUS (human GUS); [Inhibitor 2] =75 μM, [MUG] 2 mM): 2629.91 and 2703.96
